Patent US20240082222A1, “4-CHLORO-N-[2-[(4-CHLOROPHENYL)METHYL]-3-OXO-1,2,4-THIADIAZOL-5-YL]BENZAMIDE FOR USE IN MEDICINE” (Betagenon AB, priority 2021, published 2024)
Values joined by “and” are separate entries in the source; they are usually repeats but may differ in a detail not shown here. Identical values can stand only once. Counter-ions that a name gives are not always drawn. Like-named read-outs stand apart in the source and are kept apart here.

Assay: Pharmacokinetic study in humans, sodium salt in enteric capsules, single and multiple dose (Example 2)
Format: in vivo, human
Details: for AUClast_D / Cmax D / AUC_TAU_D: dose-normalised; for AUC(0-t) / Cmax / Tmax / AUC / concentration at 24 h: human, plasma, oral; for Cmax: read-out: Cmax; for Tmax: read-out: Tmax; for concentration at 24 h: read-out: Clast
Experimental: An open, randomised, parallel-group study in healthy volunteers (hereafter referred to as subjects) was conducted to evaluate the exposure of 4-chloro-N-[2-[(4-chlorophenyl)methyl]-3-oxo-1,2,4-thiadiazol-5-yl]benzamide after single and multiple dose administration of 3 dose levels of the sodium salt of 4-chloro-N-[2-[(4-chlorophenyl)methyl]-3-oxo-1,2,4-thiadiazol-5-yl]benzamide and to evaluate combination with dapagliflozin at steady state.
For the study, Vcaps enteric capsules, size 0, were individually filled with 200 mg of milled test material together with 2 mg of sodium docusate, 125 mg of mannitol and 6.5 mg of sodium lauryl sulfate. […]
A screening visit (Visit 1) was performed within 28 days before randomisation and the start of IMP administration. The subjects were confined to the research clinic from the evening before Day 1 (Visit 2; Day—1). […]
Pre-dose safety assessments as well as pre- and post-dose PK assessments were performed. The subjects left the clinic after the last PK-sample on Day 1 and returned for a 24 h PK sample and dosing on Day 2 (Visit 3).
Subjects self-administered the test material at home from Day 3 to Day 15. A telephone visit to check compliance, AE status and use of concomitant medications will be performed on Day 8 (Visit 4).
The subjects returned to the clinic on Days 16 and 17 (Visits 5 and 6), for PK sampling and AE assessment. Visit 6 continued in the evening of Day 17, when the subjects were confined to the clinic until Day 18. On Day 18, pre- and post-dose PK and safety assessments were performed. The subjects left the clinic after the last PK sample on Day 18 and returned for a 24 h PK sample and dosing on Day 19 (Visit 7).
On Day 19 (Visit 7) subjects began co-administration of the test material and dapagliflozin (Forxiga), 10 mg per day for 7 days (Day 19 to Day 25). The subjects returned to the clinic on Day 25 (Visit 8) for final dosing, PK and safety assessments. A final end-of-study visit (Visit 9) for follow-up of safety assessments was conducted 28 days (+14 days) after Visit 8 or after early withdrawal.
Venous blood samples (approximately 5 mL) for the determination of plasma concentrations of 4-chloro-N-[2-[(4-chlorophenyl)methyl]-3-oxo-1,2,4-thiadiazol-5-yl]benzamide after administration of the test material were collected through an indwelling venous catheter on Days 1, 2, 16 to 19 and 25.
The blood samples were collected in pre-labelled Li-Heparin tubes. All the collected blood samples were be centrifuged at 1500 G for 10 minutes to separate plasma within 60 minutes from the sample is drawn. The separated plasma from each blood sample was be divided into 2 aliquots in pre-labelled polypropylene cryotubes (A and B samples, approximately 750 μL in each tube) and frozen at <−70° C. On Day 25, the plasma was divided in to 3 aliquots of at least 500 μL (A and B samples for the test material, and 1 sample for potential future analysis of dapagliflozin).
Samples for determination of plasma concentrations of 4-chloro-N[2-[(4-chlorophenyl)methyl]-3-oxo-1,2,4-thiadiazol-5-yl]benzamide were analysed by Lablytica Life Science AB, Uppsala, Sweden by means of a validated LS-MS/MS method.
The data of plasma concentration to respective time points for the analyte (4-chloro-N-[2-[(4-chlorophenyl)methyl]-3-oxo-1,2,4-thiadiazol-5-yl]benzamide) were used for the pharmacokinetic analysis. Pharmacokinetic analysis was performed using non-compartmental analysis (NCA) module of Phoenix WinNonlin 8.1 software to determine the following pharmacokinetic parameters.
After single dose administration of test material: • AUC0-24, Cmax, Tmax and dose proportionality (based on AUC0-24 and Cmax) (secondary endpoints). […]

[1] = 2000 mg Dose Group, capsule once daily, Day 18, Mean
[2] = 2000 mg Dose Group, capsule once daily, Day 18, Median
[3] = capsule once daily, Day 18, individual subjects, listed as test material
[4] = 200 mg, mean, dose group 200, capsule, Day 1
[5] = 200 mg, mean, dose group 200, capsule, Day 18
[6] = 400 mg, 400 mg Dose Group, capsules once daily, Day 18, Geometric Mean
[7] = 400 mg, 400 mg Dose Group, capsules once daily, Day 18, Mean
[8] = 400 mg, 400 mg Dose Group, capsules once daily, Day 18, Median
[9] = 400 mg, 400 mg Dose Group, capsules once daily, Day 18, individual subjects
[10] = 400 mg, mean, dose group 400, capsule, Day 1
[11] = 400 mg, mean, dose group 400, capsule, Day 18
[12] = 800 mg, 800 mg Dose Group, capsules once daily, Day 18, Geometric Mean
[13] = 800 mg, 800 mg Dose Group, capsules once daily, Day 18, Mean
[14] = 800 mg, 800 mg Dose Group, capsules once daily, Day 18, Median
[15] = 800 mg, 800 mg Dose Group, capsules once daily, Day 18, individual subjects
[16] = 800 mg, mean, dose group 800, capsule, Day 1
[17] = 800 mg, mean, dose group 800, capsule, Day 18
[18] = 2000 mg, 2000 mg Dose Group, capsule once daily, Day 18, Geometric Mean
[19] = 2000 mg, 2000 mg Dose Group, capsule once daily, Day 18, Mean
[20] = 2000 mg, 2000 mg Dose Group, capsule once daily, Day 18, Median

Compound: O=C(Nc1nc(=O)n(Cc2ccc(Cl)cc2)s1)c1ccc(Cl)cc1 [Compound of formula II, sodium salt of 4-chloro-N-[2-[(4-chlorophenyl)methyl]-3-oxo-1,2,4-thiadiazol-5-yl]benzamide]
- AUClast_D [1]: 5.305 µg·h/mL/mg
- Cmax D [1]: 0.2493 µg/mL/mg
- AUC_TAU_D [2]: 4.752 µg·h/mL/mg
- AUClast_D [2]: 4.888 µg·h/mL/mg
- Cmax D [2]: 0.2403 µg/mL/mg
- AUC_TAU_D (2000 mg Dose Group, capsule once daily, Day 18, individual subjects, listed as test material): 5.67 µg·h/mL/mg and 4.2 µg·h/mL/mg and 8.01 µg·h/mL/mg and 4.01 µg·h/mL/mg and 4.75 µg·h/mL/mg and 3.87 µg·h/mL/mg and 5.06 µg·h/mL/mg
- AUClast_D [3]: 5.65 µg·h/mL/mg and 6.98 µg·h/mL/mg and 4.19 µg·h/mL/mg and 7.98 µg·h/mL/mg and 4 µg·h/mL/mg and 4.74 µg·h/mL/mg and 3.86 µg·h/mL/mg and 5.04 µg·h/mL/mg
- Cmax D [3]: 0.261 µg/mL/mg and 0.31 µg/mL/mg and 0.21 µg/mL/mg and 0.36 µg/mL/mg and 0.201 µg/mL/mg and 0.231 µg/mL/mg and 0.173 µg/mL/mg and 0.25 µg/mL/mg
- AUC(0-t) [4]: 87.4 µg·h/mL
- Cmax [4]: 7.19 µg/mL
- Tmax [4]: 15 h
- AUC(0-t) [5]: 1060 µg·h/mL
- Cmax [5]: 49.9 µg/mL
- Tmax [5]: 8.03 h
- Cmax (200 mg, repeated dosing, study of Example 2): ~50 µg/mL
- AUC [6]: 1500 µg·h/mL
- AUC(0-t) [6]: 1520 µg·h/mL
- Cmax [6]: 69.6 µg/mL
- Tmax [6]: 4.27 h
- AUC [7]: 1530 µg·h/mL
- AUC(0-t) [7]: 1540 µg·h/mL
- Cmax [7]: 70.8 µg/mL
- Tmax [7]: 8.31 h
- AUC [8]: 1400 µg·h/mL
- AUC(0-t) [8]: 1480 µg·h/mL
- Cmax [8]: 66.1 µg/mL
- Tmax [8]: 5 h
- AUC [9]: 1210 µg·h/mL
- AUC(0-t) [9]: 1210 µg·h/mL
- Cmax [9]: 56.2 µg/mL
- AUC(0-t) [10]: 158 µg·h/mL
- Cmax [10]: 10.6 µg/mL
- Tmax [10]: 15.4 h
- AUC(0-t) [11]: 1540 µg·h/mL
- Cmax [11]: 70.8 µg/mL
- Tmax [11]: 8.31 h
- AUC [12]: 2530 µg·h/mL
- AUC(0-t) [12]: 2590 µg·h/mL
- concentration at 24 h [12]: 108 µg/mL
- Cmax [12]: 118 µg/mL
- AUC [13]: 2560 µg·h/mL
- AUC(0-t) [13]: 2620 µg·h/mL
- concentration at 24 h [13]: 110 µg/mL
- Cmax [13]: 118 µg/mL
- Tmax [13]: 11.5 h
- AUC [14]: 2730 µg·h/mL
- AUC(0-t) [14]: 2670 µg·h/mL
- concentration at 24 h [14]: 115 µg/mL
- Cmax [14]: 122 µg/mL
- Tmax [14]: 9.99 h
- AUC [15]: 1810 µg·h/mL
- AUC(0-t) [15]: 1800 µg·h/mL
- concentration at 24 h [15]: 73.7 µg/mL
- Cmax [15]: 87.3 µg/mL
- AUC(0-t) [16]: 340 µg·h/mL
- Cmax [16]: 22.8 µg/mL
- Tmax [16]: 15.6 h
- AUC(0-t) [17]: 2620 µg·h/mL
- Cmax [17]: 118 µg/mL
- Tmax [17]: 11.5 h
- AUC [18]: 987 µg·h/mL
- AUC(0-t) [18]: 1030 µg·h/mL
- Cmax [18]: 48.6 µg/mL
- AUC [19]: 1020 µg·h/mL
- AUC(0-t) [19]: 1060 µg·h/mL
- concentration at 24 h [19]: 44 µg/mL
- Cmax [19]: 49.9 µg/mL
- Tmax [19]: 8.03 h
- AUC [20]: 950 µg·h/mL
- AUC(0-t) [20]: 978 µg·h/mL
- Cmax [20]: 48.1 µg/mL
- Tmax [20]: 6.5 h
- peak blood plasma concentration (repeated dosing of 200 mg in the form of a capsule): ≥ 50 µg/mL
- blood plasma concentration versus same amount of free base form (repeated dosing, 200 to 1000 mg/day): approximately five-fold higher
